From patent US20190119298A1, “FUSED 3-PHENYLTETRAMIC ACID DERIVATIVES HAVING HERBICIDAL ACTION” (Bayer CropScience Aktiengesellschaft, priority 2016, published 2019)

Legend:
Assay type in all cases: in vivo
Alopecurus myosuroides = assay: Pre-emergence herbicidal effect; settings: 320 g/ha, scored visually after 3 weeks vs untreated controls, 100% = plants have died
From the text: (§1) Seeds of monocotyledonous and dicotyledonous weed plants and crop plants are laid out in sandy loam soil in wood-fibre pots and covered with soil. The compounds of the invention, formulated in the form of wettable powders (WP) or as emulsion concentrates (EC), are then applied to the surface of the covering soil as aqueous suspension or emulsion at a water application rate equating to 600 to 800 L/ha with addition of 0.2% wetting agent. After the treatment, the pots are placed in a greenhouse and kept under good growth conditions for the trial plants. The damage to the test plants is scored visually after a test period of 3 weeks by comparison with untreated controls (herbicidal activity in percent (%): 100% activity=the plants have died, 0% activity=like control plants). ALOMY: Alopecurus myosuroides

Lolium multiflorum = assay: Pre-emergence herbicidal effect; settings: 320 g/ha, scored visually after 3 weeks vs untreated controls, 100% = plants have died
From the text: as §1, with “LOLMU: Lolium multiflorum” for “ALOMY: Alopecurus myosuroides”

Setaria viridis [1] = assay: Post-emergence herbicidal effect; settings: one-leaf stage, 320 g/ha, assessed visually after about 3 weeks, 100% = plants have died
Experimental: (§2) SETVI: Setaria viridis Seeds of monocotyledonous and dicotyledonous weed and crop plants are laid out in sandy loam soil in wood-fibre pots, covered with soil and cultivated in a greenhouse under good growth conditions. 2 to 3 weeks after sowing, the test plants are treated at the one-leaf stage. The compounds of the invention, formulated in the form of wettable powders (WP) or as emulsion concentrates (EC), are then sprayed onto the green parts of the plants as aqueous suspension or emulsion at a water application rate equating to 600 to 800 L/ha with addition of 0.2% wetting agent. After the test plants have been left to stand in the greenhouse under optimal growth conditions for about 3 weeks, the action of the preparations is assessed visually in comparison to untreated controls (herbicidal action in percent (%): 100% activity=the plants have died, 0% activity=like control plants).

Echinochloa crus-galli [2] = assay: Post-emergence herbicidal effect; settings: one-leaf stage, 320 g/ha, assessed visually after about 3 weeks, 100% = plants have died
Experimental: as §2, with “ECHCG: Echinochloa crus-galli” for “SETVI: Setaria viridis”

Setaria viridis [3] = assay: Pre-emergence herbicidal effect; settings: 320 g/ha, scored visually after 3 weeks vs untreated controls, 100% = plants have died
From the text: as §1, with “SETVI: Setaria viridis” for “ALOMY: Alopecurus myosuroides”

Echinochloa crus-galli [4] = assay: Pre-emergence herbicidal effect; settings: 320 g/ha, scored visually after 3 weeks vs untreated controls, 100% = plants have died
From the text: as §1, with “ECHCG: Echinochloa crus-galli” for “ALOMY: Alopecurus myosuroides”

Avena fatua = assay: Pre-emergence herbicidal effect; settings: 320 g/ha, scored visually after 3 weeks vs untreated controls, 100% = plants have died
From the text: as §1, with “AVEFA: Avena fatua” for “ALOMY: Alopecurus myosuroides”

COc1cc(C)cc(Cl)c1C1=C(O)C2CCOCCN2C1=O (stereo not shown) [Ia-1-8]
Pre-emergence action ALOMY (herbicidal activity in percent) (Alopecurus myosuroides): 90%
Pre-emergence action LOLMU (herbicidal activity in percent) (Lolium multiflorum): 100%

CCOC(=O)OC1=C(c2c(CC)cc(C)cc2CC)C(=O)N2CCCOCC12 (stereo not shown) [Ib-2-6]
Post-emergence effectiveness SETVI (herbicidal action in percent) (Setaria viridis [1]): 100%
Post-emergence effectiveness ECHCG (herbicidal action in percent) (Echinochloa crus-galli [2]): 100%

COC(=O)OC1=C(c2c(C)cc(C)cc2C)C(=O)N2CCCOCC12 (stereo not shown) [Ib-2-2]
Post-emergence effectiveness SETVI (herbicidal action in percent) (Setaria viridis [1]): 90%
Post-emergence effectiveness ECHCG (herbicidal action in percent) (Echinochloa crus-galli [2]): 90%

CCc1cc(C)cc(CC)c1C1=C(OC(=O)OC)C2COCCCN2C1=O (stereo not shown) [Ib-2-5]
Post-emergence effectiveness SETVI (herbicidal action in percent) (Setaria viridis [1]): 100%
Post-emergence effectiveness ECHCG (herbicidal action in percent) (Echinochloa crus-galli [2]): 100%

CCOC(=O)OC1=C(c2c(C)cc(C)cc2C)C(=O)N2CCCOCC12 (stereo not shown) [Ib-2-3]
Post-emergence effectiveness SETVI (herbicidal action in percent) (Setaria viridis [1]): 90%
Post-emergence effectiveness ECHCG (herbicidal action in percent) (Echinochloa crus-galli [2]): 90%

COC(=O)OC1=C(c2c(Cl)cc(C)cc2OC)C(=O)N2CCOCCC12 (stereo not shown) [Ib-1-21]
Pre-emergence action ALOMY (herbicidal activity in percent) (Alopecurus myosuroides): 100%
Pre-emergence action SETVI (herbicidal activity in percent) (Setaria viridis [3]): 100%
Pre-emergence action LOLMU (herbicidal activity in percent) (Lolium multiflorum): 100%
Pre-emergence action ECHCG (herbicidal activity in percent) (Echinochloa crus-galli [4]): 100%
Pre-emergence action AVEFA (herbicidal activity in percent) (Avena fatua): 90%

COc1cc(C)cc(Cl)c1C1=C(OC(C)=O)C2CCOCCN2C1=O (stereo not shown) [Ib-1-24]
Pre-emergence action ALOMY (herbicidal activity in percent) (Alopecurus myosuroides): 90%
Pre-emergence action SETVI (herbicidal activity in percent) (Setaria viridis [3]): 100%
Pre-emergence action LOLMU (herbicidal activity in percent) (Lolium multiflorum): 100%
Pre-emergence action ECHCG (herbicidal activity in percent) (Echinochloa crus-galli [4]): 100%
Pre-emergence action AVEFA (herbicidal activity in percent) (Avena fatua): 90%

CCc1cc(C)cc(CC)c1C1=C(OC(=O)C(C)(C)C)C2=CCOCCN2C1=O [Ib-3-3]
Post-emergence effectiveness SETVI (herbicidal action in percent) (Setaria viridis [1]): 100%
Post-emergence effectiveness ECHCG (herbicidal action in percent) (Echinochloa crus-galli [2]): 90%

CCOC(=O)OC1=C(c2c(C)cc(Br)cc2C)C(=O)N2CCOCC=C12 [Ib-3-11]
Post-emergence effectiveness SETVI (herbicidal action in percent) (Setaria viridis [1]): 90%
Post-emergence effectiveness ECHCG (herbicidal action in percent) (Echinochloa crus-galli [2]): 80%

COc1cc(C)cc(Cl)c1C1=C(OC(=O)C(C)(C)C)C2CCOCCN2C1=O (stereo not shown) [Ib-1-23]
Pre-emergence action ALOMY (herbicidal activity in percent) (Alopecurus myosuroides): 100%
Pre-emergence action SETVI (herbicidal activity in percent) (Setaria viridis [3]): 100%
Pre-emergence action LOLMU (herbicidal activity in percent) (Lolium multiflorum): 100%
Pre-emergence action ECHCG (herbicidal activity in percent) (Echinochloa crus-galli [4]): 100%
Pre-emergence action AVEFA (herbicidal activity in percent) (Avena fatua): 90%

COc1cc(C)cc(Cl)c1C1=C(OC(C)=O)C2=CCOCCN2C1=O [Ib-3-13]
Pre-emergence action ALOMY (herbicidal activity in percent) (Alopecurus myosuroides): 100%
Pre-emergence action SETVI (herbicidal activity in percent) (Setaria viridis [3]): 100%
Pre-emergence action LOLMU (herbicidal activity in percent) (Lolium multiflorum): 100%
Pre-emergence action ECHCG (herbicidal activity in percent) (Echinochloa crus-galli [4]): 100%
Pre-emergence action AVEFA (herbicidal activity in percent) (Avena fatua): 90%

CCOC(=O)OC1=C(c2ccc(C)cc2OC)C(=O)N2CCOCCC12 (stereo not shown) [Ib-1-26]
Pre-emergence action ALOMY (herbicidal activity in percent) (Alopecurus myosuroides): 90%
Pre-emergence action LOLMU (herbicidal activity in percent) (Lolium multiflorum): 90%

CCc1cc(C)cc(CC)c1C1=C(O)C2=CCOCCN2C1=O [Ia-3-3]
Post-emergence effectiveness SETVI (herbicidal action in percent) (Setaria viridis [1]): 100%
Pre-emergence action ALOMY (herbicidal activity in percent) (Alopecurus myosuroides): 80%
Pre-emergence action LOLMU (herbicidal activity in percent) (Lolium multiflorum): 100%
Post-emergence effectiveness ECHCG (herbicidal action in percent) (Echinochloa crus-galli [2]): 100%

Cc1cc(C)c(C2=C(OC(=O)C(C)(C)C)C3COCCCN3C2=O)c(C)c1 (stereo not shown) [Ib-2-4]
Post-emergence effectiveness SETVI (herbicidal action in percent) (Setaria viridis [1]): 100%
Post-emergence effectiveness ECHCG (herbicidal action in percent) (Echinochloa crus-galli [2]): 90%

CCOC(=O)OC1=C(c2c(Cl)cc(C)cc2OC)C(=O)N2CCOCCC12 (stereo not shown) [Ib-1-22]
Pre-emergence action ALOMY (herbicidal activity in percent) (Alopecurus myosuroides): 90%
Pre-emergence action SETVI (herbicidal activity in percent) (Setaria viridis [3]): 100%
Pre-emergence action LOLMU (herbicidal activity in percent) (Lolium multiflorum): 100%
Pre-emergence action ECHCG (herbicidal activity in percent) (Echinochloa crus-galli [4]): 100%
Pre-emergence action AVEFA (herbicidal activity in percent) (Avena fatua): 100%

CCOC(=O)OC1=C(c2c(CC)cc(Cl)cc2OC)C(=O)N2CCOCC=C12 [Ib-3-9]
Post-emergence effectiveness SETVI (herbicidal action in percent) (Setaria viridis [1]): 100%
Post-emergence effectiveness ECHCG (herbicidal action in percent) (Echinochloa crus-galli [2]): 90%

CCc1cc(C)cc(CC)c1C1=C(OC(=O)OCCOC)C2CCOCCN2C1=O (stereo not shown) [Ib-1-5]
Pre-emergence action ALOMY (herbicidal activity in percent) (Alopecurus myosuroides): 100%
Pre-emergence action SETVI (herbicidal activity in percent) (Setaria viridis [3]): 100%
Pre-emergence action LOLMU (herbicidal activity in percent) (Lolium multiflorum): 100%
Pre-emergence action ECHCG (herbicidal activity in percent) (Echinochloa crus-galli [4]): 100%
Pre-emergence action AVEFA (herbicidal activity in percent) (Avena fatua): 100%

CCOC(=O)OC1=C(c2c(CC)cc(C)cc2CC)C(=O)N2CCOCC=C12 [Ib-3-2]
Post-emergence effectiveness SETVI (herbicidal action in percent) (Setaria viridis [1]): 90%
Post-emergence effectiveness ECHCG (herbicidal action in percent) (Echinochloa crus-galli [2]): 80%

CCc1cc(C)cc(C)c1C1=C(OC(=O)OC)C2=CCOCCN2C1=O [Ib-3-5]
Post-emergence effectiveness SETVI (herbicidal action in percent) (Setaria viridis [1]): 90%
Pre-emergence action ALOMY (herbicidal activity in percent) (Alopecurus myosuroides): 100%
Pre-emergence action LOLMU (herbicidal activity in percent) (Lolium multiflorum): 80%
Post-emergence effectiveness ECHCG (herbicidal action in percent) (Echinochloa crus-galli [2]): 90%

CCOC(=O)OC1=C(c2c(C)cc(C)cc2CC)C(=O)N2CCOCC=C12 [Ib-3-6]
Post-emergence effectiveness SETVI (herbicidal action in percent) (Setaria viridis [1]): 90%
Post-emergence effectiveness ECHCG (herbicidal action in percent) (Echinochloa crus-galli [2]): 90%

CCc1cc(C)cc(C)c1C1=C(OC(=O)C(C)(C)C)C2=CCOCCN2C1=O [Ib-3-7]
Post-emergence effectiveness SETVI (herbicidal action in percent) (Setaria viridis [1]): 100%
Post-emergence effectiveness ECHCG (herbicidal action in percent) (Echinochloa crus-galli [2]): 90%

COc1cc(C)cc(Cl)c1C1=C(OC(=O)C(C)(C)C)C2=CCOCCN2C1=O [Ib-3-16]
Pre-emergence action ALOMY (herbicidal activity in percent) (Alopecurus myosuroides): 90%
Pre-emergence action SETVI (herbicidal activity in percent) (Setaria viridis [3]): 90%
Pre-emergence action LOLMU (herbicidal activity in percent) (Lolium multiflorum): 90%
Pre-emergence action ECHCG (herbicidal activity in percent) (Echinochloa crus-galli [4]): 80%

CC(=O)OC1=C(c2c(C)cc(C)cc2C)C(=O)N2CCCOCC12 (stereo not shown) [Ib-2-1]
Post-emergence effectiveness SETVI (herbicidal action in percent) (Setaria viridis [1]): 100%
Post-emergence effectiveness ECHCG (herbicidal action in percent) (Echinochloa crus-galli [2]): 100%
